Columns and labels:
hCA II = hCA II (Homo sapiens, UniProt P00918); experiment: CA inhibition assay (hydrolysis of 4-nitrophenylacetate); type: biochemical; settings: 4-NPA hydrolysis; three independent assays, relative errors 5–10%
Text: (§1) Carbonic anhydrase has the ability to catalyse the hydrolysis of 4-NPA. […] More detailed operations and specific parameters are as reported earlier.

hCA IX = hCA IX (Homo sapiens, UniProt Q16790); experiment: as above; type: biochemical; settings: 4-NPA hydrolysis; three independent assays, relative errors 5–10%
Text: as §1

Row | Structure (SMILES) | melting point [°C] | IC50 (hCA II) [nM] | IC50 (hCA IX) [nM]
1 | Nc1ccc(-c2cn(-c3ccc(S(N)(=O)=O)cc3)nn2)cc1 [Compound 14a, 4-(4-(4-Aminophenyl)-1H-1,2,3-triazol-1-yl)benzenesulfonamide] | 256 to 258 | 19.3 | 54.4
2 | Nc1cccc(-c2cn(-c3ccc(S(N)(=O)=O)cc3)nn2)c1 [Compound 14b, 4-(4-(3-Aminophenyl)-1H-1,2,3-triazol-1-yl)benzenesulfonamide] | 270 to 273 | 12.3 | 50.4
3 | Nc1ccc(-c2cn(-c3ccc(S(N)(=O)=O)cc3)nn2)cc1F [Compound 14c, 4-(4-(4-Amino-3-fluorophenyl)-1H-1,2,3-triazol-1-yl)benzenesulfonamide] | 245 to 247 | 15.7 | 40.4
4 | Nc1ccc(-c2cn(-c3ccc(S(N)(=O)=O)cc3)nn2)cc1Cl [Compound 14d, 4-(4-(4-Amino-3-chlorophenyl)-1H-1,2,3-triazol-1-yl)benzenesulfonamide] | 201 to 203 | 39.9 | 71
5 | Cc1cc(-c2cn(-c3ccc(S(N)(=O)=O)cc3)nn2)ccc1N [Compound 14e, 4-(4-(4-Amino-3-methylphenyl)-1H-1,2,3-triazol-1-yl)benzenesulfonamide] | 264 to 266 | 37.9 | 111
6 | COc1cc(-c2cn(-c3ccc(S(N)(=O)=O)cc3)nn2)ccc1N [Compound 14f, 4-(4-(4-Amino-3-methoxyphenyl)-1H-1,2,3-triazol-1-yl)benzenesulfonamide] | 230 to 233 | 100 | 120
7 | Nc1c(F)cc(-c2cn(-c3ccc(S(N)(=O)=O)cc3)nn2)cc1F [Compound 14g, 4-(4-(4-Amino-3,5-difluorophenyl)-1H-1,2,3-triazol-1-yl)benzenesulfonamide] | 280 to 283 | 87 | 107
8 | Nc1ccc(-c2cn(-c3ccc(S(N)(=O)=O)cc3)nn2)cc1[N+](=O)[O-] [Compound 14h, 4-(4-(4-Amino-3-nitrophenyl)-1H-1,2,3-triazol-1-yl)benzenesulfonamide] | 222 to 225 | 102 | 58.2
9 | NS(=O)(=O)c1ccc(-n2cc(-c3ccc(NC(=O)CCC(=O)N[C@@H]4O[C@H](CO)[C@@H](O)[C@H](O)[C@H]4O)c(F)c3)nn2)cc1 [Compound 16c, N^1-(2-fluoro-4-(1-(4-sulfamoylphenyl)-1H-1,2,3-triazol-4-yl)phenyl)-N^4-((2R,3R,4S,5S,6R)-3,4,5-trihydroxy-6-(hydroxymethyl)tetrahydro-2H-pyran-2-yl)succinamide] | – | 70.2 | 150
10 | NS(=O)(=O)c1ccc(-n2cc(-c3ccc(NC(=O)CCC(=O)N[C@@H]4O[C@H](CO)[C@@H](O)[C@H](O)[C@H]4O)c(Cl)c3)nn2)cc1 [Compound 16d, N^1-(2-chloro-4-(1-(4-sulfamoylphenyl)-1H-1,2,3-triazol-4-yl)phenyl)-N^4-((2R,3R,4S,5S,6R)-3,4,5-trihydroxy-6-(hydroxymethyl)tetrahydro-2H-pyran-2-yl)succinamide] | – | 90.8 | 100
11 | COc1cc(-c2cn(-c3ccc(S(N)(=O)=O)cc3)nn2)ccc1NC(=O)CCC(=O)N[C@@H]1O[C@H](CO)[C@@H](O)[C@H](O)[C@H]1O [Compound 16f, N^1-(2-methoxy-4-(1-(4-sulfamoylphenyl)-1H-1,2,3-triazol-4-yl)phenyl)-N^4-((2R,3R,4S,5S,6R)-3,4,5-trihydroxy-6-(hydroxymethyl)tetrahydro-2H-pyran-2-yl)succinamide] | – | 112 | 329
12 | NS(=O)(=O)c1ccc(-n2cc(-c3cc(F)c(NC(=O)CCC(=O)N[C@@H]4O[C@H](CO)[C@@H](O)[C@H](O)[C@H]4O)c(F)c3)nn2)cc1 [Compound 16g, N^1-(2,6-difluoro-4-(1-(4-sulfamoylphenyl)-1H-1,2,3-triazol-4-yl)phenyl)-N^4-((2R,3R,4S,5S,6R)-3,4,5-trihydroxy-6-(hydroxymethyl)tetrahydro-2H-pyran-2-yl)succinamide] | – | 149 | 544
13 | NS(=O)(=O)c1ccc(-n2cc(-c3ccc(NC(=O)CCCC(=O)N[C@@H]4O[C@H](CO)[C@@H](O)[C@H](O)[C@H]4O)cc3)nn2)cc1 [Compound 16h, N^1-(4-(1-(4-sulfamoylphenyl)-1H-1,2,3-triazol-4-yl)phenyl)-N^5-((2R,3R,4S,5S,6R)-3,4,5-trihydroxy-6-(hydroxymethyl)tetrahydro-2H-pyran-2-yl)glutaramide] | – | 26 | 270
14 | NS(=O)(=O)c1ccc(-n2cc(-c3cccc(NC(=O)CCCC(=O)N[C@@H]4O[C@H](CO)[C@@H](O)[C@H](O)[C@H]4O)c3)nn2)cc1 [Compound 16i, N^1-(3-(1-(4-sulfamoylphenyl)-1H-1,2,3-triazol-4-yl)phenyl)-N^5-((2R,3R,4S,5S,6R)-3,4,5-trihydroxy-6-(hydroxymethyl)tetrahydro-2H-pyran-2-yl)glutaramide] | – | 10.1 | 300
15 | NS(=O)(=O)c1ccc(-n2cc(-c3ccc(NC(=O)CCCC(=O)N[C@@H]4O[C@H](CO)[C@@H](O)[C@H](O)[C@H]4O)c(F)c3)nn2)cc1 [Compound 16j, N^1-(2-fluoro-4-(1-(4-sulfamoylphenyl)-1H-1,2,3-triazol-4-yl)phenyl)-N^5-((2R,3R,4S,5S,6R)-3,4,5-trihydroxy-6-(hydroxymethyl)tetrahydro-2H-pyran-2-yl)glutaramide] | – | 88.4 | 230
16 | NS(=O)(=O)c1ccc(-n2cc(-c3ccc(NC(=O)CCCC(=O)N[C@@H]4O[C@H](CO)[C@@H](O)[C@H](O)[C@H]4O)c(Cl)c3)nn2)cc1 [Compound 16k, N^1-(2-chloro-4-(1-(4-sulfamoylphenyl)-1H-1,2,3-triazol-4-yl)phenyl)-N^5-((2R,3R,4S,5S,6R)-3,4,5-trihydroxy-6-(hydroxymethyl)tetrahydro-2H-pyran-2-yl)glutaramide] | – | 91 | 290
17 | Cc1cc(-c2cn(-c3ccc(S(N)(=O)=O)cc3)nn2)ccc1NC(=O)CCCC(=O)N[C@@H]1O[C@H](CO)[C@@H](O)[C@H](O)[C@H]1O [Compound 16l, N^1-(2-methyl-4-(1-(4-sulfamoylphenyl)-1H-1,2,3-triazol-4-yl)phenyl)-N^5-((2R,3R,4S,5S,6R)-3,4,5-trihydroxy-6-(hydroxymethyl)tetrahydro-2H-pyran-2-yl)glutaramide] | – | 25.6 | 161
18 | NS(=O)(=O)c1ccc(-n2cc(-c3cc(F)c(NC(=O)CCCC(=O)N[C@@H]4O[C@H](CO)[C@@H](O)[C@H](O)[C@H]4O)c(F)c3)nn2)cc1 [Compound 16n, N^1-(2,6-difluoro-4-(1-(4-sulfamoylphenyl)-1H-1,2,3-triazol-4-yl)phenyl)-N^5-((2R,3R,4S,5S,6R)-3,4,5-trihydroxy-6-(hydroxymethyl)tetrahydro-2H-pyran-2-yl)glutaramide] | – | 177 | 352
19 | NS(=O)(=O)c1ccc(-n2cc(-c3ccc(NC(=O)CCCC(=O)N[C@@H]4O[C@H](CO)[C@@H](O)[C@H](O)[C@H]4O)c([N+](=O)[O-])c3)nn2)cc1 [Compound 16o, N^1-(2-nitro-4-(1-(4-sulfamoylphenyl)-1H-1,2,3-triazol-4-yl)phenyl)-N^5-((2R,3R,4S,5S,6R)-3,4,5-trihydroxy-6-(hydroxymethyl)tetrahydro-2H-pyran-2-yl)glutaramide] | – | 129 | 216

Reference: publication PMC8704611, “Synthesis, Molecular Docking Analysis, and Biological Evaluations of Saccharide-Modified Sulfonamides as Carbonic Anhydrase IX Inhibitors” (International Journal of Molecular Sciences, 2021)
